The target of this test is thyroid hormone receptor β (TRβ) (Homo sapiens, UniProt P10828). The test is described as follows: biochemical.
Sequence of thyroid hormone receptor β (TRβ) (P10828 82-456): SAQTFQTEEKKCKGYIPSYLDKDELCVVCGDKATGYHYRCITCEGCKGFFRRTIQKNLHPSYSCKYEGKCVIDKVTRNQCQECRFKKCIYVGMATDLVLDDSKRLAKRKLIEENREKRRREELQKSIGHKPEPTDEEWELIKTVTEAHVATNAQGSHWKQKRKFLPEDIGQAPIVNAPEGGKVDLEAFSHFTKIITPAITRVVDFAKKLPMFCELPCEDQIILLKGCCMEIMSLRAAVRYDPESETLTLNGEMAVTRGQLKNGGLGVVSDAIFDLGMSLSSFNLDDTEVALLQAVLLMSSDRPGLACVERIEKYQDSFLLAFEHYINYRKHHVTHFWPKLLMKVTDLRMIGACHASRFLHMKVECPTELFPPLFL
Sequence of thyroid hormone receptor β (TRβ) (P19793 whole entry partner): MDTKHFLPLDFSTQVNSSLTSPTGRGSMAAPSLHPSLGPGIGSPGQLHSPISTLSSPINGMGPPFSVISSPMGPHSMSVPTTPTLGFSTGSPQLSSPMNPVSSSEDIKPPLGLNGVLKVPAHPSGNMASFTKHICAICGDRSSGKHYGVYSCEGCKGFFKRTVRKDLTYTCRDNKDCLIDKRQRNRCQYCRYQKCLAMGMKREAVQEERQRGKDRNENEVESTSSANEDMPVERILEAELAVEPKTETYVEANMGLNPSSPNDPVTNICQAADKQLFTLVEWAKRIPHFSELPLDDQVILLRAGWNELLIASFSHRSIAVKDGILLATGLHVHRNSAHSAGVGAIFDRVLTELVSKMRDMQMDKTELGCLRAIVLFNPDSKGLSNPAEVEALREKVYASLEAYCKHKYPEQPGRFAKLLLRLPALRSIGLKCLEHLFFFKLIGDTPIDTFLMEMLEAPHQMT
Sequence of thyroid hormone receptor β (TRβ) (Q60974 2057-2453 partner): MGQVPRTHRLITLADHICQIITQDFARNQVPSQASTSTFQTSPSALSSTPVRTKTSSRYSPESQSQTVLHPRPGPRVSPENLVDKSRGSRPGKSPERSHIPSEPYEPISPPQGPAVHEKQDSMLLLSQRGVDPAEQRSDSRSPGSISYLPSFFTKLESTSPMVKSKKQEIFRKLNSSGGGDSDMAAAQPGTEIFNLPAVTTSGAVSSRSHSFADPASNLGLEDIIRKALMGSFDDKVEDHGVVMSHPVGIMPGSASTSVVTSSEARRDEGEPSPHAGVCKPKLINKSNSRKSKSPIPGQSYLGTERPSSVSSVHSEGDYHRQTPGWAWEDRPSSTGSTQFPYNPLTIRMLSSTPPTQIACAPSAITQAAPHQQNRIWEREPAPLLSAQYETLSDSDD
Sequence of thyroid hormone receptor β (TRβ) (Q9Y6Q9 627-829 partner): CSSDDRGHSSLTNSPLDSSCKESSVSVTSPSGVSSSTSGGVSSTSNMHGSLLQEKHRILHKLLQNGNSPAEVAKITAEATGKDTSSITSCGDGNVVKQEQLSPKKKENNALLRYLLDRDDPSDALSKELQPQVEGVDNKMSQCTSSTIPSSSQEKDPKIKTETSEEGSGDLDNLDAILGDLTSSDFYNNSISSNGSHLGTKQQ

In general, IC50 refers to the midpoint of a concentration-inhibition curve. Higher therefore signals lower potency. Consider `Cc1cc(OCC(=O)O)cc(C)c1Cc1cc(C#Cc2ccc([N+](=O)[O-])cc2)c(O)c(C(C)C)c1` [NH-3, {4-[4-hydroxy-3’-isopropyl-5-(4-nitrophenylethynyl)benzyl]-3,5-dimethylphenoxy}acetic acid], for which the half-inhibitory concentration (IC50) was 1.09 ± 0.08 µM.

Source of the values: article PMC2701686 (Analytical biochemistry, 2008).
